Source: patent US20260174786A1, “A NITROGEN-CONTAINING SPIROCYCLIC COMPOUND, PHARMACEUTICAL COMPOSITION AND USE THEREOF” (Prime Gene Therapeutics Co., Ltd., priority 2022, published 2026)

What follows are molecules tested against T1, hTRPV3 (Homo sapiens, UniProt Q8NET8) (assay: Whole cell patch clamp inhibition rate test on HEK-293 cells instantaneously expressing TRPV3). Conditions: HEK293; hTRPV3, single concentration 0.3 μM.
T1 construct: expressed in transfected cells; host or cells: HEK-293
T1 sequence (Q8NET8 1-790): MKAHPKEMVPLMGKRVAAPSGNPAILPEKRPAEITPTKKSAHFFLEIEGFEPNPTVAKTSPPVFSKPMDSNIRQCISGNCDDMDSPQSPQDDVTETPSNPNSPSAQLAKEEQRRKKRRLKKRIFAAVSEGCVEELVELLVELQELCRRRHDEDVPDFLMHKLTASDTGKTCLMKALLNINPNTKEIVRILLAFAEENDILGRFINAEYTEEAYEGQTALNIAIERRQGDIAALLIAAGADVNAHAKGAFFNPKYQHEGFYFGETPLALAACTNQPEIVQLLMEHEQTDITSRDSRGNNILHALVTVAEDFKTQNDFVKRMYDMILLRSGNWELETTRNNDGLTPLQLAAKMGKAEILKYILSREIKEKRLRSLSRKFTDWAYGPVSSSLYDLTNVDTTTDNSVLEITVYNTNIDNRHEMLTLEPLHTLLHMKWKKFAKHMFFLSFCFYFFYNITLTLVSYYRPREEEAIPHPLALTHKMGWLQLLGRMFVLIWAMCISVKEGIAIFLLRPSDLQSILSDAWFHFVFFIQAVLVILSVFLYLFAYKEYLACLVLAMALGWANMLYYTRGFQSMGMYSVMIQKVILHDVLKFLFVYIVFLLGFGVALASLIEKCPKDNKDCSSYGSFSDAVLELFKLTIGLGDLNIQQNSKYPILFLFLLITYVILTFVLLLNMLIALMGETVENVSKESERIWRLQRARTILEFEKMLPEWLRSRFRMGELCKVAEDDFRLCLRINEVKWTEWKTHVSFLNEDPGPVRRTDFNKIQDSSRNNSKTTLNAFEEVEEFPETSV
Type: cell-based
Outline: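 HEK-293 cells transiently transfected with TRPV3, recorded next-but-one day by whole-cell patch clamp at room temperature: holding −80 mV, ramp −100 to 100 mV over 100 ms every 5 s, peak current monitored. Ascending concentrations perfused, 5 min each; each cell its own control, at least two cells per concentration.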

Row | inhibition at 0.3 µM | SMILES
1 | 50 to 70% | O=C(c1ccc(F)cn1)N1CCC2(CC(O)c3cc(-c4ccccc4OC(F)(F)F)ccc32)C1 (stereo not shown) [Example 82, (5-fluoropyridin-2-yl)(3-hydroxy-5-(2-(trifluoromethoxy)phenyl)-2,3-dihydrospiro[indene-1,3′-pyrrolidine]-1′-yl) ketone]
2 | 70 to 100% | O=C(c1ccc(F)cn1)N1CCC2(CC(O)c3cc(-c4cc(F)ccc4C4CC4)ccc32)C1 (stereo not shown) [Example 83, (5-(2-cyclopropyl-5-fluorophenyl)-3-hydroxy-2,3-dihydrospiro[indene-1,3′-pyrrolidine]-1′-yl)(5-fluoropyridin-2-yl) ketone]
3 | 25 to 50% | O=C(c1ccc(F)cn1)N1CCC2(CC(O)c3cc(-c4ccccc4)ccc32)C1 (stereo not shown) [Example 84, (5-fluoropyridin-2-yl)(3-hydroxy-5-phenyl-2,3-dihydrospiro[indene-1,3′-pyrrolidine]-1′-yl) ketone]
4 | 70 to 100% | Cc1cccc(-c2ccc3c(c2)C(O)CC32CCN(C(=O)c3ccc(F)cn3)C2)c1C1CC1 (stereo not shown) [Example 85, (5-(2-cyclopropyl-3-methylphenyl)-3-hydroxy-2,3-dihydrospiro[indene-1,3′-pyrrolidine]-1′-yl)(5-fluoropyridin-2-yl) ketone]
5 | 50 to 70% | CCOc1ccccc1-c1ccc2c(c1)C(O)CC21CCN(C(=O)c2ccc(F)cn2)C1 (stereo not shown) [Example 86, (5-(2-ethoxyphenyl)-3-hydroxy-2,3-dihydrospiro[indene-1,3′-pyrrolidine]-1′-yl)(5-fluoropyridin-2-yl) ketone]
6 | 50 to 70% | O=C(c1ccc(F)cn1)N1CCC2(CC(O)c3cc(-c4cccc5c4CCC5)ccc32)C1 (stereo not shown) [Example 87, (5-(2,3-dihydro-1H-indene-4-yl)-3-hydroxy-2,3-dihydrospiro[indene-1,3′-pyrrolidine]-1′-yl)(5-fluoropyridin-2-yl) ketone]
7 | 70 to 100% | CC(C)(C)c1ccccc1-c1ccc2c(c1)C(O)CC21CCN(C(=O)c2ccc(F)cn2)C1 (stereo not shown) [Example 88, (5-(2-(tert-butyl)phenyl)-3-hydroxy-2,3-dihydrospiro[indene-1,3′-pyrrolidine]-1′-yl)(5-fluoropyridin-2-yl) ketone]
8 | 25 to 50% | CC(C)(O)c1ccccc1-c1ccc2c(c1)C(O)CC21CCN(C(=O)c2ccc(F)cn2)C1 (stereo not shown) [Example 89, (5-fluoropyridin-2-yl)(3-hydroxy-5-(2-(2-hydroxypropyl-2-)phenyl)-2,3-dihydrospiro[indene-1,3′-pyrrolidine]-1′-yl) ketone]
9 | < 25% | Cc1ncccc1-c1ccc2c(c1)C(O)CC21CCN(C(=O)c2ccc(F)cn2)C1 (stereo not shown) [Example 91, (5-fluoropyridin-2-yl)(3-hydroxy-5-(2-methylpyridin-3-yl)-2,3-dihydrospiro[indene-1,3′-pyrrolidine]-1′-yl) ketone]
10 | 70 to 100% | O=C(c1ccc(F)cn1)N1CCC2(CC(O)c3cc(-c4cccc5ccccc45)ccc32)C1 (stereo not shown) [Example 92, (5-fluoropyridin-2-yl)(3-hydroxy-5-(naphthalen-1-yl)-2,3-dihydrospiro[indene-1,3′-pyrrolidine]-1′-yl) ketone]
11 | 70 to 100% | CC(=O)c1cc(F)ccc1-c1ccc2c(c1)C(O)CC21CCN(C(=O)c2ccc(F)cn2)C1 (stereo not shown) [Example 95, 1-(5-fluoro-2-(1′-(5-fluoropyridoyl)-3-hydroxy-2,3-dihydrospiro[indene-1,3′-pyrrolidine]-5-yl)phenyl)ethan-1-one]
12 | < 25% | CC(C)c1ccccc1-c1ccc2c(c1)C1(CCN(C(=O)c3ccc(F)cn3)C1)CC2O (stereo not shown) [Example 103, (5-fluoropyridin-2-yl)(3-hydroxy-6-(2-isopropylphenyl)-2,3-dihydrospiro[indene-1,3′-pyrrolidine]-1′-yl) ketone]
13 | 70 to 100% | CC(C)c1ccccc1Oc1ccc2c(c1)C(O)CC21CCN(C(=O)c2ccc(F)cn2)C1 (stereo not shown) [Example 104, (5-fluoropyridin-2-yl)(3-hydroxy-5-(2-isopropylphenyloxy)-2,3-dihydrospiro[indene-1,3′-pyrrolidine]-1′-yl) ketone]
14 | < 25% | CCc1nccnc1Oc1ccc2c(c1)C(O)CC21CCN(C(=O)c2ccc(F)cn2)C1 (stereo not shown) [Example 105, (5-((3-ethylpyrazin-2-yl)oxy)-3-hydroxy-2,3-dihydrospiro[indene-1,3′-pyrrolidine]-1′-yl)(5-fluoropyridin-2-yl] ketone]
15 | 70 to 100% | CC(C)c1ccccc1Sc1ccc2c(c1)C(O)CC21CCN(C(=O)c2ccc(F)cn2)C1 (stereo not shown) [Example 106, (5-fluoropyridin-2-yl)(3-hydroxy-5-((2-isopropylphenyl)thio)-2,3-dihydrospiro[indene-1,3′-pyrrolidine]-1′-yl) ketone]
16 | < 25% | CC(C)c1ccccc1[S+]([O-])c1ccc2c(c1)C(O)CC21CCN(C(=O)c2ccc(F)cn2)C1 (stereo not shown) [Example 107, (5-fluoropyridin-2-yl)(3-hydroxy-5-((2-isopropylphenyl)sulfoxide)-2,3-dihydrospiro[indene-1,3′-pyrrolidine]-1′-yl) ketone]
17 | < 25% | CC(C)c1ccccc1S(=O)(=O)c1ccc2c(c1)C(O)CC21CCN(C(=O)c2ccc(F)cn2)C1 (stereo not shown) [Example 108, (5-fluoropyridin-2-yl)(3-hydroxy-5-((2-isopropylphenyl)sulfonyl)-2,3-dihydrospiro[indene-1,3′-pyrrolidine]-1′-yl) ketone]
18 | < 25% | CC(C)c1ccccc1-c1ccc2c(c1)CCC21CCN(C(=O)c2ccc(F)cn2)C1 (stereo not shown) [Example 120, (5-fluoropyridin-2-yl)(5-(2-isopropylphenyl)-2,3-dihydrospiro[indene-1,3′-pyrrolidine]-1′-yl) ketone]
19 | 70 to 100% | CC(C)c1ccccc1-c1ccc2c(c1)C(CO)CC21CCN(C(=O)c2ccc(F)cn2)C1 (stereo not shown) [Example 126, (5-fluoropyridin-2-yl)(3-(methylol)-5-(2-isopropylphenyl)-2,3-dihydrospiro[indene-1,3′-pyrrolidine]-1′-yl) ketone]
20 | < 25% | CC(C)c1ccccc1-c1ccc2c(c1)C(C(=O)O)CC21CCN(C(=O)c2ccc(F)cn2)C1 (stereo not shown) [Example 129, 1′-(5-fluoropyridoyl)-5-(2-isopropylphenyl)-2,3-dihydrospiro[indene-1,3′-pyrrolidine]-3-carboxylic acid]
21 | < 25% | COC(=O)C1CC2(CCN(C(=O)c3ccc(F)cn3)C2)c2ccc(-c3ccccc3C(C)C)cc21 (stereo not shown) [Example 130, methyl 1′-(5-fluoropyridoyl)-5-(2-isopropylphenyl)-2,3-dihydrospiro[indene-1,3′-pyrrolidine]-3-carboxylate]
22 | < 25% | CC(C)c1ccccc1-c1ccc2c(c1)C(O)CC21CCN(Cc2ccc(F)cn2)C1 (stereo not shown) [Example 134, 1′-((5-fluoropyridin-2-yl)methyl)-5-(2-isopropylphenyl)-2,3-dihydrospiro[indene-1,3′-pyrrolidine]-3-ol]
23 | < 25% | CC(C)c1ccccc1-c1ccc2c(c1)C(O)CC21CCN(S(=O)(=O)c2ccc(Cl)cn2)C1 (stereo not shown) [Example 135, 1′-((5-chloropyridin-2-yl)sulfonyl)-5-(2-isopropylphenyl)-2,3-dihydrospiro[indene-1,3′-pyrrolidine]-3-ol]
24 | < 25% | CC(C)c1ccccc1-c1ccc2c(c1)C(O)CC21CC(=O)N(Cc2ccc(F)cn2)C1 (stereo not shown) [Example 137, 1′-((5-fluoropyridin-2-yl)methyl)-3-hydroxy-5-(2-isopropylphenyl)-2,3-dihydrospiro[indene-1,3′-pyrrolidine]-5′-one]
25 | < 25% | CC(C)c1ccccc1-c1ccc2c(c1)C(O)CC21CCN(C(F)(F)c2ccc(F)cn2)C1 (stereo not shown) [Example 146, 1′-(difluoro(5-fluoropyridin-2-yl)methyl)-5-(2-isopropylphenyl)-2,3-dihydrospiro[indene-1,3′-pyrrolidine]-3-ol]
26 | 70 to 100% | OC1CC2(CCN(c3cnc4cc(Cl)ccn34)C2)c2ccc(-c3ccccc3C3CC3)cc21 (stereo not shown) [Example 152, 5-(2-cyclopropylphenyl)-1′-(7-chloroimidazo[1,2-a]pyridin-3-yl)-2,3-dihydrospiro[indene-1,3′-pyrrolidine]-3-ol]
27 | 70 to 100% | OC1CC2(CCN(c3cnc4cc(F)ccn34)C2)c2ccc(-c3ccccc3C3CC3)cc21 (stereo not shown) [Example 153, 5-(2-cyclopropylphenyl)-1′-(7-fluoroimidazo[1,2-a]pyridin-3-yl)-2,3-dihydrospiro[indene-1,3′-pyrrolidine]-3-ol]
28 | < 25% | O=C1C[C@@]2(CCN(C(=O)c3ccc(F)cn3)C2)c2ccc(-c3ccccc3C3CC3)cc21 [Example 162, (S)-5-(2-cyclopropylphenyl)-1′-(5-fluoropyridoyl)spiro[indene-1,3′-pyrrolidine]-3(2H)-one]
